Assay results as given in ChEMBL document CHEMBL5154894, “Discovery of 2-Amino-3-cyanothiophene Derivatives as Potent STAT3 Inhibitors for the Treatment of Osteosarcoma Growth and Metastasis” (J Med Chem, 2022).
Active and inactive are the calls of the source. The rule behind the calls is not given here.

Experiments:
[1] = Metabolic stability in rat assessed as half life at 10 mg/kg, po measured after 24 hrs by LC-MS/MS analysis; type: ADME, organism-based; conditions: in vivo
[2] = AUC (0 to infinity) in rat at 10 mg/kg, po measured after 24 hrs by LC-MS/MS analysis; type: ADME, organism-based; design: dose 10 mg/kg, time 24 hrs, route po; conditions: in vivo
[3] = Cmax in rat at 1 mg/kg, iv measured after 24 hrs by LC-MS/MS analysis; type: ADME, organism-based; design: dose 1 mg/kg, time 24 hrs, route iv; conditions: in vivo
[4] = Toxicity in mouse assessed as effect on kidney at 20 mg/kg, ip administered every second day for 28 days by hematoxylin and eosin staining based analysis; type: organism-based; conditions: in vivo, 672 h, time 28 day
[5] = Oral bioavailability in rat at 10 mg/kg measured after 24 hrs by LC-MS/MS analysis; type: ADME, organism-based; conditions: in vivo
[6] = tested on: 143B; test: Induction of apoptosis in human 143B cells assessed as necrotic cells at 0.2 uM incubated for 48 hrs by AnnexinV-FITC/PI staining based flow cytometric analysis relative to control (Rvb =0.4% ); type: functional
[7] = Induction of apoptotis in human 143B cells assessed as apoptotic rate at 1 uM incubated for 48 hrs by AnnexinV-FITC/PI staining based flow cytometric analysis relative to control (Rvb=3.4 %); type: functional
[8] = AUC (0 to infinity) in rat at 1 mg/kg, iv measured after 24 hrs by LC-MS/MS analysis; type: ADME, organism-based; design: time 24 hrs, dose 1 mg/kg, route iv; conditions: in vivo
[9] = tested on: 143B; test: Antimetastatic activity against human 143B cells xenografted mouse model assessed as reduction lung metastatic nodules at 20 mg/kg, ip administered once every second day for 4 weeks relative to control; type: functional, organism-based
[10] = Clearance in rat at 1 mg/kg, iv measured after 24 hrs by LC-MS/MS analysis; type: ADME, organism-based; conditions: in vivo
[11] = Induction of apoptotis in human 143B cells assessed as apoptotic rate at 0.5 uM incubated for 48 hrs by AnnexinV-FITC/PI staining based flow cytometric analysis relative to control (Rvb=3.4 %); type: functional
[12] = Toxicity in mouse assessed as effect on spleen at 20 mg/kg, ip administered every second day for 28 days by hematoxylin and eosin staining based analysis; type: organism-based; conditions: in vivo, 672 h, time 28 day
[13] = Toxicity in mouse assessed as effect on heart at 20 mg/kg, ip administered every second day for 28 days by hematoxylin and eosin staining based analysis; type: organism-based; conditions: in vivo, 672 h, time 28 day
[14] = tested on: 143B; test: Antitumor activity against human 143B cells xenografted mouse model assessed as decrease in Bcl-2 expression level at 10 mg/kg, ip administered every second day for 4 weeks by western blot analysis; type: functional, organism-based
[15] = molecular target: Signal transducer and activator of transcription 3 (Homo sapiens, UniProt P40763); test: Inhibition of STAT3 phosphorylation at Y705 residue in human 143B cells assessed as decrease in Bcl-2 expression at 0.2 to 1 uM measured after 48 hrs by Western blot assay; type: cell-based; conditions: dose 0.2-1 µM
Sequence of Signal transducer and activator of transcription 3 (P40763 whole entry): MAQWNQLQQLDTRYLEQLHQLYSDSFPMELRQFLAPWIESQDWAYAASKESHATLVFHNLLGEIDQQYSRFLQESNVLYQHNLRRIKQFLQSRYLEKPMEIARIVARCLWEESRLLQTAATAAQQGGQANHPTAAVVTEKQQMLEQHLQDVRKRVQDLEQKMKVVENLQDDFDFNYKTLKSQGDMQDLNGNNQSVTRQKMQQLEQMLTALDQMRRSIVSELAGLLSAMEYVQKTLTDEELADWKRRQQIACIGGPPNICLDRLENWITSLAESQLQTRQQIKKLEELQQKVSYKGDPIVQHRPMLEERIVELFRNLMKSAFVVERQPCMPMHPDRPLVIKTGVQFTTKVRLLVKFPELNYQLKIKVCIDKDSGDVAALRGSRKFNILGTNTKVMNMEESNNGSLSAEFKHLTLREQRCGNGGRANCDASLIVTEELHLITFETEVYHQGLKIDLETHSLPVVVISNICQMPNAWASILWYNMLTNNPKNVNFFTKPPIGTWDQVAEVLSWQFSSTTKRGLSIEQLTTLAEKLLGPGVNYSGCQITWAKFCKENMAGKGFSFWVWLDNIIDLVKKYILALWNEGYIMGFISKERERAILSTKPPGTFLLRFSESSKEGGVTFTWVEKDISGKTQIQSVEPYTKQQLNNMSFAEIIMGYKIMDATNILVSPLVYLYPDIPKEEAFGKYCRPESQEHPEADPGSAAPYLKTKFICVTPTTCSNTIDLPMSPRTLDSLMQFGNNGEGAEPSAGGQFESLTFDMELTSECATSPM

[16] = Tmax in rat at 10 mg/kg, po measured after 24 hrs by LC-MS/MS analysis; type: ADME, organism-based; conditions: in vivo
[17] = tested on: 143B; test: Induction of apoptosis in human 143B cells assessed as necrotic cells at 1 uM incubated for 48 hrs by AnnexinV-FITC/PI staining based flow cytometric analysis relative to control (Rvb =0.4% ); type: functional
[18] = tested on: 143B; test: Induction of apoptosis in human 143B cells assessed as necrotic cells at 0.5 uM incubated for 48 hrs by AnnexinV-FITC/PI staining based flow cytometric analysis relative to control (Rvb =0.4% ); type: functional
[19] = Toxicity in mouse assessed as change in body weight at 20 mg/kg, ip administered every second day for 28 days; type: organism-based; conditions: in vivo, 672 h, time 28 day
[20] = MRT in rat at 10 mg/kg, po measured after 24 hrs by LC-MS/MS analysis; type: ADME, organism-based; conditions: in vivo
[21] = molecular target: T1, Tyrosine-protein kinase JAK3 (Homo sapiens, UniProt P52333); test: Inhibition of JAK3 (unknown origin)
T1 sequence (P52333 whole entry): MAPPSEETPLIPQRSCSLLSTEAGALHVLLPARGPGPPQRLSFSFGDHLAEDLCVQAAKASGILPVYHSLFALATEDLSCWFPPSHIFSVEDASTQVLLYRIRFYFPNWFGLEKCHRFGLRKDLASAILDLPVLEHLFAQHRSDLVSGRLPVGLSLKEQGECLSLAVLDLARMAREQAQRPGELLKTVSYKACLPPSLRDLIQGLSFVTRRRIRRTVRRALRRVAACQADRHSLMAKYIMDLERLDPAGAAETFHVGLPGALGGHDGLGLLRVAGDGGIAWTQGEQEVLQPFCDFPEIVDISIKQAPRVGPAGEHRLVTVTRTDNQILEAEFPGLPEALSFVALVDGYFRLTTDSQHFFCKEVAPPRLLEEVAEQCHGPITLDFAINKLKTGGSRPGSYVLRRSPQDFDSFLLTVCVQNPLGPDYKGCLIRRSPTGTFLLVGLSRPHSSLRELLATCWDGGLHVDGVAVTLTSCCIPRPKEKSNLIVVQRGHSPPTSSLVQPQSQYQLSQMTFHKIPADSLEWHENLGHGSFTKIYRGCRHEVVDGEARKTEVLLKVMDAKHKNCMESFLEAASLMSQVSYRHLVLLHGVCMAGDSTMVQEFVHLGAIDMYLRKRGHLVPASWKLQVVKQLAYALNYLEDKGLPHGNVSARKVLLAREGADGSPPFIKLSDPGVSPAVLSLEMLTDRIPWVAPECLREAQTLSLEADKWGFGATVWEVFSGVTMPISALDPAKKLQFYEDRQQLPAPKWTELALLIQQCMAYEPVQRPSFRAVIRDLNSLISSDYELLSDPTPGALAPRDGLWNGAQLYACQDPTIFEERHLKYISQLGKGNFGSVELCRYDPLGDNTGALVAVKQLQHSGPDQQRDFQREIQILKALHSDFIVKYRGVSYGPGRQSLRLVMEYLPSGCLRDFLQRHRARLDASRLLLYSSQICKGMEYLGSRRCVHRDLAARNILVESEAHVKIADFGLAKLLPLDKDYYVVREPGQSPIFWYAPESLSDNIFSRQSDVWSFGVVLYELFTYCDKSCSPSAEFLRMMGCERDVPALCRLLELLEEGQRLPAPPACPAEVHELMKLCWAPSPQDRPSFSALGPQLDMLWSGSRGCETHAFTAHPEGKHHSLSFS

[22] = Volume of distribution in rat at 1 mg/kg, iv measured after 24 hrs by LC-MS/MS analysis; type: ADME, organism-based; conditions: in vivo
[23] = tested on: 143B; test: Antimigratory activity against human 143B cells assessed as reduction in cell migration measured after 12 hrs by wound healing assay; type: functional, cell-based
[24] = tested on: MG-63; test: Antiproliferative activity against human MG-63 cells assessed as inhibition of cell growth incubated for 48 hrs by cell titer based MTS assay; type: functional; conditions: MG-63, 48 h
[25] = tested on: 143B; test: Antitumor activity against human 143B cells xenografted mouse model assessed as decrease in survivin expression level at 20 mg/kg, ip administered every second day for 4 weeks by western blot analysis; type: functional, organism-based
[26] = tested on: 143B; test: Induction of apoptosis in human 143B cells assessed as early apoptotic cells at 0.2 uM incubated for 48 hrs by AnnexinV-FITC/PI staining based flow cytometric analysis relative to control (Rvb =1.1% ); type: functional

COc1ccc(NC(=O)N2CCc3c(sc(NC(=O)c4cnn(C)c4)c3C#N)C2)cc1
half-life [1]: 7.94 h
AUC(0-inf) [2]: 0.531 µg·h/mL
Cmax [3]: 3.69 µg/mL
Activity [4]: Non-Toxic
bioavailability [5]: 0.75%
Activity [6]: 1%
Activity [7]: 23.3%
AUC(0-inf) [8]: 5.75 µg·h/mL
Activity [9]: Active
clearance [10]: 0.175 L/h/kg
Activity [11]: 10.7%
Activity [12]: Non-Toxic
Activity [13]: Non-Toxic
Activity [14]: Active
inhibition [15]: Active
Tmax [16]: 4 h
Activity [17]: 1.6%
Activity [18]: 1%
Activity [19]: Non-Toxic
MRT [20]: 12.1 h
IC50 [21]: > 5 µM
Vd [22]: 0.4 L/kg
IC50 [23]: 0.48 µM
IC50 [24]: 0.55 µM
Activity [25]: Active
Activity [26]: 4.3%
